The record followed here is US10583181B2, “Recombinant multiple domain fusion protein mitogens and use thereof for inducing enhancement or repression of antigen-specific immunity” (priority 2008, dated 2020).

Entries after “also recorded” stand apart in the source; their conditions may differ.

Experiment [1] relates to human Fas-apoptosis-sensitive Jurkat T cell line or human peripheral blood T lymphocytes. The experiment can be described thus: Cell death in Jurkat T cell line or peripheral blood T lymphocytes. The format is cell-based. An excerpt:
According to understanding, the strong cell activation by simultaneous stimulation of a co-stimulation receptor and another death receptor is not a predictable outcome. […] A possible explanation for the strong activation in CD28^+/Fas^+ T cells is that B7-2 and FasL must be located in the close proximity to each other, as is the case when linked together in the B7-2-FasL-IgFc fusion protein.

For the next experiment, the system named is Influenza hemaglutinin. Further details: species or system Balb/c mice. The note with it: mouse; for HA-specific IgG, secondary response following boost / HA-specific IgG, primary response: in vivo; for HA-specific IgG, primary response: ip.
Experiment [2] deals with Influenza hemaglutinin-specific T cell response. More on the design: species or system Balb/c mice. The following applies: mouse, in vivo, ip.
The test system of experiment [3] is Total T cells, CD4+ T cells and CD8+ T cells. Put plainly: Proliferation of purified human T cells (total, CD4+, CD8+). The format is cell-based. The procedure:
(§1) Human lymphocytes were stimulated for 3 days in 96 U-bottom well plates with various concentrations of recombinant fusion proteins. In some experiments, a NF-κB inhibitor (SN50, 18 μM, Calbiochem, San Diego, Calif., USA) and a MEK1/2 inhibitor (PD98059, 1 μg/ml, Calbiochem) were added to the cell culture media. Cell proliferation was assessed by thymidine uptake assays. Cultured cells were pulsed with 1 μCi/well of [^3H]thymidine (ICN, Costa Mesa, Calif., USA) for 18 hours and then harvested onto glass fiber filters. [^3H]thymidine incorporation was measured by standard liquid scintillation counting techniques. In some experiments, HA antigen-specific cell proliferation response was assayed by the MTT assay [van de Loosdrecht et al., J. Immunol. Methods, 174:311(1994)], which is a direct measure of cell viability.
PBMCs derived from normal healthy human adults were separated from whole blood using Ficoll-Paque Plus. Peripheral blood lymphocyte (PBL)-T cells, PBL-B cells, CD4^+ T cells, CD8^+ T cells were purified by negative selection using RosetteSep (StemCell Tec. Vancouver, BC, Canada), while non-T cells were purified by negative selection using pan-T magnet beads (M-450, Dynal, Lake Success, N.Y., USA). The purity of human PBL-T cells was greater than 97% as determined by CD3 staining and flow cytometry. […] CD4^+ and CD8^+ T cells were purified to greater than 90% positive for CD4 and CD8, respectively as determined by flow cytometry studies.
Total T cells, CD4^+ T cells and CD8^+ T cells were stimulated with either B7-2-FasL-IgFc or control fusion proteins. CD4^+ T cells and CD8^+ T cells were stimulated with various fusion proteins. After 72 hours in culture, cell proliferation was assessed. Data indicates the average and standard deviation of quadruplicate samples. The data represent the three experiments with similar results.

The next experiment concerns IL-2. The experiment can be described thus: IL-2 production of T cells (ELISA). The format is cell-based, human. The following applies: 1 μg/ml, 3 days. As to the method:
(§2) The relative concentrations of TNP-specific human IgG and IgM in supernatants from 4 day cultures were determined by ELISA assays. TNP22-BSA (1 μg/ml) was used to coat assay plates, and alkaline phosphatase-conjugated anti-human IgG (Fab-specific) (Sigma) or anti-human IgM (μ-chain-specific) (Sigma) were used as the detection reagents. The concentration of IL-2 in fusion protein-stimulated culture supernatants was measured by human-IL-2-specific ELISA kit (Roche, Laval, QC, Canada). The lower limit of detection was 30 pg/ml in IL-2 assay.
T cells were stimulated by B7-2-FasL-IgFc (1 μg/ml) or phytohemagglutinin (5 μg/ml) for 3 days. The concentration of IL-2 in culture supernatants was measured by ELISA assays. The lower limit of detection was 30 pg/ml in IL-2 assay. The data represent the three experiments with similar results.

The next experiment relates to T-bet. The experiment can be described thus: T-bet RNA in CD4+ T cells by RT-PCR. The format is cell-based, human. The following applies: 5 days. As to the method: (§3) Using specific primers, PRDI-BF1 RNA was amplified by RT-PCR (20 cycles) from cytoplasmic RNA derived from PBL cells stimulated for three days with fusion proteins (0.1 μM). T-bet and GATA3 RNAs were amplified by RT-PCR (25 cycles) from cytoplasmic RNA derived from CD4^+ T cells stimulated for five days with fusion proteins (0.1 μM). Each sample was subjected to electrophoresis on agarose gels and stained with ethidium bromide (EtBr) to detect amplified fragments: 594 bp for PRDI-BF1, 206 bp for T-bet and 131 bp for GATA3.
CD4^+ T cells were stimulated by B7-2-FasL-IgFc (0.1 μM) for 5 days before total RNA was harvested and tested for increased mRNA expression of T-bet (for Th1 differentiation) and GATA-3 (for Th2 differentiation) by RT-PCR. Each sample was electrophoresed on agarose gels and stained with ethidium bromide (EtBr) to detect amplified fragments: 206 bp for T-bet and 131 bp for GATA3. The data represent the three experiments with similar results.

In experiment [4] the test system is human B lymphoma cells (Raji, Daudi). Put plainly: Cell death of human B lymphoma cells after treatment. The format is cell-based. The note with it: Raji and Daudi cells.
For another experiment, the system named is human PBMCs. Put plainly: Proliferation of human PBMC ([3H]thymidine uptake). The format is cell-based. The procedure: as §1
We cultured human PBMCs and mouse spleen cells in the presence of CD40L-FasL-IgFc. Whole blood, obtained from a healthy donor, was twice diluted with Na-PBS (pH 7.2) and peripheral blood mononuclear cells (PBMCs) were separated by Ficoll density gradients (Ficoll-Paque Plus, Amarsham Biotech) by centrifugation (Sorvall RT 6000, 1500 rpm for 15 minutes at room temperature). The peripheral blood mononuclear cells were collected from the interphase between the PBS top layer and Ficoll plus bottom layer, washed with PBS and subjected to cell proliferation assays. […]

Experiment [5] relates to PBL-T cells and PBL-non-T cells. The experiment can be described thus: Proliferation of PBL-T cells versus PBL-non-T cells. The format is cell-based, human. The following applies: 0.1 μM, 3 days. The procedure: as §1
PBL-T cells and PBL-non-T cells were stimulated with CD40L-FasL-IgFc (0.1 μM) for three days prior to proliferation assay. […] The data represent the three experiments with similar results. […]
PBMCs derived from normal healthy human adults were separated from whole blood using Ficoll-Paque Plus. […] The purity of human PBL-T cells was greater than 97% as determined by CD3 staining and flow cytometry. […] CD4^+ and CD8^+ T cells were purified to greater than 90% positive for CD4 and CD8, respectively as determined by flow cytometry studies.

For experiment [6], the system named is B cell (CD19+) and monocyte (CD14+) fractions. The experiment can be described thus: Phenotype of CD40L-FasL-IgFc activated cells. The note with it: cultures stimulated for 5 days. The format is cell-based, human.
The next experiment has as its system PBL-B cells. The experiment can be described thus: TNP-specific IgG/IgM secretion ELISA. The following applies: 4 days culture, supernatant ELISA. The format is cell-based, human. The procedure:
as §2
We next assessed the effect on IgG secretion by fusion protein-induced co-clustering of CD40 and Fas in B cells. PBL-B cells were incubated with CD40L-FasL-IgFc for four days and the supernatants were assayed for IgG- and IgM-specific trinitrophenyl (TNP) hapten [Galanaud et al., Cell. Immunol., 106:234 (1987)].
PBMCs were stimulated with fusion proteins for four days. The relative concentrations of TNP-specific human IgG and IgM in supernatants were determined by ELISA assays. […] The data represent the three experiments with similar results.

The next experiment relates to PRDI-BF1. The experiment can be described thus: PRDI-BF1 RNA by RT-PCR. The format is cell-based, human. The following applies: 0.1 μM, 3 days. As to the method:
as §3
PBMCs were stimulated with fusion proteins (0.1 μM) for three days. The total RNA was assayed for the message of PRDI-BF1 by RT-PCR. Each sample was electrophoresed on agarose gels and stained with ethidium bromide (EtBr) to detect amplified fragments. The data represent the results from three experiments with similar results.

The test system of a further experiment is OVA. Put plainly: Anti-OVA IgG response in immunized mice (ELISA titer). The format is in vivo, Balb/c mice. The procedure: Balb/c mice (4-6 wks of age) were primed intra peritoneal (i.p.) route with 0.1 ml of protein antigens, OVA albumin (Sigma) or GSK […] (GlaxoSmithKline, Mississauga, Ontario, Canada), in the presence and absence of fusion protein or cDNA harboring plasmid. To determine the antigen-specific IgG titer in the serum of the individual mouse, ELISA were performed using 0.1 μg/ml antigen-coated assay plates (Maxisorp, Nunc 44-2404-21) following the standard procedure.
Balb/c mice were immunized i.p. with 0.2 μg of OVA and 5 μg of CD40L-FasL-IgFc (indicated as Primed). On Day 14, blood samples were harvested and subsequently mice were injected with 0.2 μg of OVA (indicated as Boosted). Sera from day 14 and day 21 were analysed by ELISA for the IgG activity against OVA. […] Squares indicate mice immunized with OVA alone. Circles indicate mice immunized with both OVA and CD40L-FasL-IgFc. Numbers in squares and circles indicate individual mouse. The […] activity of pre-immune serum from each mouse was equally low at less than 50 in titer.

For the substance “B7-2-FasL-IgFc: fusion protein of human B7-2 extracellular domain, FasL extracellular domain and IgG1 Fc (SEQ ID NO: 17)”, the “induction of cell death” value in experiment [1] was “did not induce cell death”. Also, in the experiment on Influenza hemaglutinin, the “humoral and cellular immune responses in vivo” value was “severe repression of humoral and cellular immune responses”; the “HA-specific IgG, secondary response following boost” value is “far lower”; the “HA-specific IgG, primary response” value is on record as “repressed the antibody response”. In experiment [2], the “HA-specific CD8+ T cell response” value is “undetectable” and the “HA-specific response by total T cells” value is “suppressed the HA-specific response by total T cells”. In experiment [3] (72 hours culture), the “T cell proliferation (mitogenic response)” value is “strong activation of proliferation; also recorded: strong T cell-specific mitogenic response; also recorded: proliferation of both CD4^+ and CD8^+ T cells increased”; the “magnitude of T cell proliferation compared with phytohemagglutinin (PHA)” value is listed as “comparable to that induced by the well-known T cell mitogen PHA; also recorded: comparable to phytohemagglutinin-induced T cell mitogenesis”. Further, the “dose required by CD8+ T cells to achieve similar levels of proliferation to CD4+ T cells” value in experiment [3] (CD8+ versus CD4+ T cells) was > 20 fold. For the same substance, the “IL-2 secretion by T cells” value in the experiment with IL-2 is “secretion of IL-2”. In the experiment on T-bet (CD4+ T cells, 0.1 μM), the “T-bet transcription factor RNA” value is recorded as “significant increase”. The “differentiation of CD4+ T cells in vitro” value with T-bet (from T-bet/GATA3 RT-PCR) is recorded as “skewing towards Th1 subsets”.
Regarding “CD40L-FasL-IgFc: fusion protein of human CD40L extracellular domain, human FasL extracellular domain and human IgG1 Fc (SEQ ID NO: 13)”, the “cell death of B lymphoma cells” value in [4] was “did not undergo cell death”. Moreover, the “cell activation / mitogenic response (proliferation) of PBMC” value with human PBMCs (3 days stimulation, 3H-thymidine, active even at 0.1-0.01 μg/ml) is “significant cell activation; also recorded: greatly exceeded the mitogenic response induced by the co-stimulation with CD40L-IgFc and FasL-IgFc”. Besides, the “mitogenic activity after adsorption with Polymixin B” value in the experiment on human PBMCs (fusion protein pre-absorbed with Polymixin B-coated beads, 3 days) was “did not attenuate the mitogenic activity”. Further, the “cell subset specificity of activation (T versus non-T/B cells)” value in experiment [5] was “did not activate T lymphocytes but resulted in a strong mitogenic activity against B cells; also recorded: specific for the non-T cell subsets”. In addition, in experiment [6], the “increase of B cell (CD19+) fraction” value was determined as 30% and the “increase of monocyte (CD14+) fraction” value turned out to be 15%. In the experiment on PBL-B cells, the “anti-TNP IgG secretion” value is given as “significantly increased”. The “expression of PRDI-BF1 RNA” value in the experiment on PRDI-BF1 is “increased expression”. Further, the “OVA-specific IgG, primary response” value with OVA (0.2 μg OVA + 5 μg fusion protein i.p., day 14 sera) is on record as “high titers”. Besides, in the experiment with OVA (boost 0.2 μg OVA on day 14, day 21 sera), the “OVA-specific IgG after boost” value was “increased markedly”. In the experiment with Influenza hemaglutinin, the “HA-specific IgG, secondary response following boost” value is listed as “far greater” and the “HA-specific IgG, primary response” value is “significantly increased the antibody response”. In addition, in [2], the “HA-specific CD8+ T cell response” value is reported as “only detectable in spleen cells immunized with CD40L-FasL-IgFc” and the “HA-specific response by total T cells” value is “lowered the HA-specific response by total T cells”.
